Our source for the IC50 values is patent publication US20230365563A1, “QUINAZOLINE COMPOUND AND APPLICATION THEREOF” (SHANGHAI PHARMACEUTICALS HOLDING CO., LTD., priority 2020, published 2023).

Structures can show the parent of a compound that is named as a salt.

One assay deals with T1, KRAS_G12D and cRAF (Homo sapiens, UniProt P01116, G12D).
T1 construct: purchased
Description: Inhibition of KRAS_G12D/cRAF binding (Cisbio binding kit, 665/615 ratio), Effect Embodiment B. The settings on record: read-out: GTP-KRAS-G12D:CRAF IC50. In short, it runs like this:
(§1)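 Duplicate wells received an eleven-point, threefold compound titration whose top point was the stock solution; final DMSO 1%.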

The target of another assay is T2, KRAS_WT and SOS1 (Homo sapiens, UniProt P01116).
T2 construct: purchased
As to the kind of experiment: Inhibition of KRAS_WT/SOS1 binding (Cisbio binding kit, 665/615 ratio), Effect Embodiment C. The following applies: read-out: GTP-KRAS-WT:SOS1 IC50. In short, it runs like this: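 Compounds tested as 3-fold, 11-point dilutions in duplicate at 1% DMSO final against the KRAS_WT/SOS1 binding system. IC50 derived by nonlinear regression fit.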

In the next assay the target is T3, KRAS-G12D and SOS1 (Homo sapiens, UniProt P01116, G12D).
T3 construct: purchased
As to the kind of experiment: Inhibition of KRAS-G12D/SOS1 binding (Cisbio binding kit, 665/615 ratio), Effect Embodiment A. The settings on record: read-out: GTP-KRAS-G12D:SOS1 IC50. In short, it runs like this: as §1

What is called IC50 is the concentration that gives 50% inhibition. Turning to `CN1CCC1CCOc1nc(N2CC3CCC(C2)N3)c2cc(Cl)c(-c3cc(O)cc4ccccc34)c(F)c2n1` (single isomer, unassigned) [Compound 112a, 4-((S or R)-4-((1R,5S)-3,8-diazabicyclo[3.2.1]octan-3-yl)-6-chloro-8-fluoro-2-(2-((S or R)-1-methylazetidin-2-yl)ethoxy)quinazolin-7-yl)naphthalen-2-ol dicarboxylate], the IC50 was 0.119 µM on KRAS_G12D and cRAF; 2.52 µM on KRAS_WT and SOS1; 0.0574 µM at KRAS-G12D and SOS1.
As for `C[C@@H](COc1nc(N2CC3CCC(C2)N3)c2cc(Cl)c(-c3cc(O)cc4ccccc34)c(F)c2n1)CN1CCO[C@H](C)C1` (single isomer, unassigned) [Compound 242, 4-((S or R)-4-((1R,5S)-3,8-diazacyclo[3.2.1]octan-3-yl)-6-chloro-8-fluoro-2-((R)-2-methyl-3-((R)-2-methylmorpholinyl)propoxy)quinazolin-7-yl)naphthalen-2-ol formate], the IC50 on KRAS_G12D and cRAF was 0.0233 µM; at KRAS_WT and SOS1 it was 0.731 µM; on KRAS-G12D and SOS1, 0.0137 µM.
With `CN1CCC[C@@]1(C)COc1nc(N2CC3CCC(C2)N3)c2cnc(-c3cc(O)cc4ccccc34)c(F)c2n1` [Compound 136, 4-(4-((1R,5S)-3,8-diazabicyclo[3.2.1]octan-3-yl)-2-((S)-1,2-methylpyrrolidin-2-yl)methoxy)-8-fluoropyridinyl[4,3-d]pyrimidin-7-yl)naphthalen-2-ol diformate], the IC50 at KRAS_G12D and cRAF was 0.0675 µM; at KRAS_WT and SOS1, 1.16 µM; at KRAS-G12D and SOS1, 0.0307 µM.
“((3R or 3S, 7aR or 7aS)-7a-((4-((1R,5S)-3,8-diazabicyclo[3.2.1]octan-3-yl)-6-chloro-8-fluoro-7-(3-hydroxynaphthalen-1-yl)quinazolin-2-yl)oxy)methyl)hexahydro-1H-pyrrolidin-3-yl)dimethylcarbamate tristrifluoroacetate [Compound 232b]”: the IC50 was 0.0148 µM at KRAS_G12D and cRAF; 0.0662 µM on KRAS_WT and SOS1; 0.0135 µM at KRAS-G12D and SOS1.
`CCc1cccc2cc(O)cc(-c3c(F)cc4c(N5CC6CCC(C5)N6)nc(OCCCN5C6CCC5COC6)nc4c3F)c12` (single isomer, unassigned) [Compound 271a, 4-((7S or 7R)-2-(3-(3-oxa-8-azabicyclo[3.2.1]octan-8-yl)propoxy)-4-((1R,5S)-3,8-diazabicyclo[3.2.1]octan-3-yl)-6,8-difluoroquinazolin-7-yl)-5-ethylnaphthalen-2-ol diformate]: the IC50 is 0.0114 µM on KRAS_G12D and cRAF; 0.179 µM at KRAS_WT and SOS1; 0.00986 µM at KRAS-G12D and SOS1.
Take `Oc1cc(-c2c(Cl)cc3c(N4CC5CCC(C4)N5)nc(OCCCN4CCC4)nc3c2F)c2ccccc2c1` (single isomer, unassigned) [Compound 59a, 4-((S or R)-2-(3-(azetidin-1-yl)propoxy)-4-((1R,5S)-3,8-diazabicyclo[3.2.1]octan-3-yl)-6-chloro-8-fluoroquinazolin-7-yl)naphthalen-2-ol]: the IC50 at KRAS_G12D and cRAF is 0.182 µM; on KRAS_WT and SOS1, 2.08 µM; on KRAS-G12D and SOS1, 0.0454 µM.
As to `C[C@@H]1CCCN1CCCOc1nc(N2CC3CCC(C2)N3)c2cc(Cl)c(-c3cc(O)cc4ccccc34)c(F)c2n1` (single isomer, unassigned) [Compound 108a, 4-((S or R)-4-((1R,5S)-3,8-diazabicyclo[3.2.1]octan-3-yl)-6-chloro-8-fluoro-2-(3-((R)-2-methylpyrrolidin-1-yl)propoxy)quinazolin-7-yl)naphthalen-2-ol dihydrochloride], the IC50 was 0.212 µM on KRAS_G12D and cRAF; 2.3 µM on KRAS_WT and SOS1; 0.0563 µM on KRAS-G12D and SOS1.
Turning to `CN1CCCC1CCOc1nc(N2CC3CCC(C2)N3)c2cc(Cl)c(-c3cc(O)cc4ccccc34)c(F)c2n1` (single isomer, unassigned) [Compound 96b, 4-((S or R)-4-((1R,5S)-3,8-diazabicyclo[3.2.1]octan-3-yl)-6-chloro-8-fluoro-2-(2-((R or S)-1-methylpyrrolidin-2-yl)ethoxy)quinazolin-7-yl)naphthalen-2-ol], the IC50 on KRAS_G12D and cRAF stood at 0.156 µM; on KRAS_WT and SOS1 it was 2.97 µM; at KRAS-G12D and SOS1 it was 0.0343 µM.
For the molecule `CCc1cccc2cc(O)cc(-c3c(F)cc4c(N5CC6CCC(C5)N6)nc(OCCCN5CCOC[C@H]5C)nc4c3F)c12` (single isomer, unassigned) [Compound 282a, (S or R)-4-(4-((1R,5S)-3,8-diazacyclo[3.2.1]octan-3-yl)-6,8-difluoro-2-(3-((R)-3-methylmorpholinyl)propoxy)quinazolin-7-yl)-5-ethylnaphthalen-2-ol dihydrochloride], the IC50 on KRAS_G12D and cRAF is 0.0136 µM; at KRAS_WT and SOS1, 0.175 µM; on KRAS-G12D and SOS1, 0.0165 µM.
On to `CN(C)C1CN(c2nc(N3CC4CC(C3)N4)c3cc(Cl)c(-c4cc(O)cc5ccccc45)c(F)c3n2)C1` (single isomer, unassigned) [Compound 25, 4-((7S or 7R)-4-(3,6-diazabicyclo[3.1.1]heptan-3-yl)-6-chloro-2-(3-(dimethylamino)azetidin-1-yl)-8-fluoroquinazolin-7-yl)naphthalen-2-ol], for which the IC50 on KRAS_G12D and cRAF was 4.38 µM; at KRAS_WT and SOS1, 2.55 µM; on KRAS-G12D and SOS1 it was 0.294 µM.
For `CN(C)C1CN(c2nc(N3CCNCC34CC4)c3cc(Cl)c(-c4cc(O)cc5ccccc45)c(F)c3n2)C1` (single isomer, unassigned) [Compound 19a, (R or S)-4-(6-chloro-2-(3-(dimethylamino)azetidin-1-yl)-8-fluoro-4-(4,7-diazaspiro[2.5]octan-4-yl)quinazolin-7-yl)naphthalen-2-ol], in that order: 1.63 µM, 9.42 µM and 0.898 µM.
For `N#Cc1cccc2cc(O)cc(-c3c(F)cc4c(N5CC6CCC(C5)N6)nc(OCCCN5C6CCC5COC6)nc4c3F)c12` (single isomer, unassigned) [Compound 278a, 8-((7S or 7R)-2-(3-(3-oxa-8-azabicyclo[3.2.1]octan-8-yl)propoxy)-4-((1R,5S)-3,8-diazabicyclo[3.2.1]octan-3-yl)-6,8-difluoroquinazolin-7-yl)-6-hydroxy-1-naphthonitrile diformate], in that order: 0.0386 µM, 0.122 µM and 0.0176 µM.
Regarding `CN(C)C12CC(COc3nc(N4CC5CCC(C4)N5)c4cc(Cl)c(-c5cc(O)cc6ccccc56)c(F)c4n3)(C1)C2` (single isomer, unassigned) [Compound 127, 4-((S or R)-4-((1R,5S)-3,8-diazabicyclo[3.2.1]octan-3-yl)-6-chloro-2-((3-(dimethylamino)bicyclo[1.1.1]pentan-1-yl)methoxy)-8-fluoroquinazolin-7-yl)naphthalen-2-ol hydrochloride], the IC50 stood at 0.251 µM on KRAS_G12D and cRAF; 6.39 µM at KRAS_WT and SOS1; 0.0876 µM at KRAS-G12D and SOS1.
For `C[C@@H](COc1nc(N2CC3CCC(C2)N3)c2cc(Cl)c(-c3cc(O)cc4ccccc34)c(F)c2n1)CN1CCOC[C@H]1C` (single isomer, unassigned) [Compound 239, 4-((S or R)-4-((1R,5S)-3,8-diazacyclo[3.2.1]octyl-3-yl)-6-chloro-8-fluoro-2-((R)-2-methyl-3-((R)-3-methylmorpholinyl)propoxy)quinazolin-7-yl)naphthalen-2-ol formate], in that order: 0.0183 µM, 0.496 µM and 0.0153 µM.
